Test results: US5578634A, “1H-indole-3-acetic acid hydrazide sPLA2 inhibitors” (Eli Lilly and Company, priority 1995, dated 1996)

Columns and labels:
[1] = molecular target: T1, sPLA2 contraction (Homo sapiens, UniProt P14555); experiment: sPLA2-induced contraction of guinea pig lung pleural strips, tissue test (Assay Example 2); set-up: species or system Male Hartley strain guinea pigs; key to transient contraction of tissue during test: *: indicates transient contraction of tissue during test; settings: for inhibition at 10 µM / inhibition at 30 µM: guinea pig, sPLA2 10 ug/ml; for inhibition at 10 µM: compound concentration 10 uM, read-out: % suppression of sPLA2 contraction at 10 uM; for inhibition at 30 µM: compound concentration 30 uM, read-out: % suppression of sPLA2 contraction at 30 uM
T1 sequence (P14555 21-144): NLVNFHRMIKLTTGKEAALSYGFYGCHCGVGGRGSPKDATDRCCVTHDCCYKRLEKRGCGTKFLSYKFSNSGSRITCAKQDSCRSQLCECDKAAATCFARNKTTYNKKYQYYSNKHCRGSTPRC
Excerpt: Male Hartley strain guinea pigs (500-700 g) were killed by cervical dislocation and their heart and lungs removed intact and placed in aerated (95% O2 :5% CO2) Krebs buffer. Dorsal pleural strips (4×1×25 mm) were dissected from intact parenchymal segments (8×4×25 mm) cut parallel to the outer edge of the lower lung lobes. Two adjacent pleural strips, obtained from a single lobe and representing a single tissue sample, were tied at either end and independently attached to a metal support rod. One rod was attached to a Grass force-displacement transducer (Model FTO3C, product of Grass Medical Instruments Co., Quincy, Mass., USA). […] All tissues were placed in 10 ml jacketed tissue baths maintained at 37° C. The tissue baths were continuously aerated and contained a modified Krebs solution of the following composition (millimolar) NaCl, 118.2; KCl, 4.6; CaCl2.2H2 O, 2.5; MgSO4.7H2 O, 1.2; NaHCO3, 24.8; KH2 PO4, 1.0; and dextrose, 10.0. Pleural strips from the opposite lobes of the lung were used for paired experiments. […] The tissues were allowed to equilibrate for 45 min. as the bath fluid was changed periodically. Cumulative concentration-response curves: Initially tissues were challenged 3 times with KCl (40 mM) to test tissue viability and to obtain a consistent response. After recording the maximal response to KCl the tissues were washed and allowed to return to baseline before the next challenge. Cumulative concentration-response curves were obtained from pleural strips by increasing the agonist concentration (sPLA2) in the tissue bath by half-log10 increments while the previous concentration remained in contact with the tissues (Ref.1, supra.) Agonist concentration was increased after reaching the plateau of the contraction elicited by the preceding concentration. One concentration-response curve was obtained from each tissue. To minimize variability between tissues obtained from different animals, contractile responses were expressed as a percentage of the maximal response obtained with the final KCl challenge. When studying the effects of various drugs on the contractile effects of sPLA2, the compounds and their respective vehicles were added to the tissues 30 min. prior to starting the sPLA2 concentration-response curves. statistical analysis: Data from different experiments were pooled and presented as a percentage of the maximal KCl responses (mean±S.E.). To estimate the drug induced rightward shifts in the concentration response curves, the curves were analyzed simultaneously using statistical nonlinear modeling methods similar to those described by Waud (1976), Equation 26, p. 163, (Ref.2). The model includes four parameters: the maximum tissue response which was assumed the same for each curve, the ED50 for the control curve, the steepness of the curves, and the PA2, the concentration of antagonist that requires a two-fold increase in agonist to achieve an equivalent response. The Schild slope was determined to be 1, using statistical nonlinear modeling methods similar to those described by Waud (1976), Equation 27, p. 164 (Ref. 2). […] To estimate the drug-induced suppression of the maximal responses, sPLA2 responses (10 ug/ml) were determined in the absence and presence of drug, and percent suppression was calculated for each pair of tissues. Ref. 1--van Rossum, J. M.: Cumulative dose-response curves. II. Technique for the making of dose-response curves in isolated organs and the evaluation of drug parameters. Arch. Int. Pharmacodyn. Ther. 143: 299-330, 1963. Ref. 2--Waud, D.: Analysis of dose-response relationships. in Advances in General and Cellular Pharmacology […]

[2] = molecular target: T2, human secreted PLA2 (Homo sapiens, UniProt P14555); experiment: chromogenic assay of recombinant human secreted phospholipase A2 inhibition (Assay Example 1); assay type: biochemical; settings: mean of 3-5 tests; 40° C., 30 minutes, pH 7.5, 405 nanometers; read-out: Inhibition of human secreted PLA2 IC50 ± mean deviation (3-5 tests)
T2 sequence (P14555 21-144): T1 sequence (P14555 21-144)
Excerpt: The assay described herein has been adapted for high volume screening using 96 well microtiter plates. A general description of this assay method is found in the article, "Analysis of Human Synovial Fluid Phospholipase A2 on Short Chain Phosphatidylcholine-Mixed Micelles: Development of a Spectrophotometric Assay Suitable for a Microtiterplate Reader", by Laure J. Reynolds, Lori L. […] Reagents, the disclosure of which is incorporated herein by reference. REACTION BUFFER CaCl2.2H20 (1.47 g/L) KCl (7.455 g/L) Bovine Serum Albumin (fatty acid free) (1 g/L) (Sigma A-7030, product of Sigma Chemical Co. St. Louis Mo., USA) TRIS HCl (3.94 g/L) pH 7.5 (adjust with NaOH) ENZYME BUFFER […] 0.2 NaCl Adjust pH to 4.5 with acetic acid DTNB […] RACEMIC DIHEPTANOYL THIO - PC […] TRITON X-100™ prepare at 6.249 mg/ml in reaction buffer to equal […]. REACTION MIXTURE A measured volume of racemic dipheptanoyl thio PC supplied in chloroform at a concentration of 100 mg/ml is taken to dryness and redissolved in 10 millimolar TRITON X-100™ nonionic detergent aqueous solution. Reaction Buffer is added to the solution, then DTNB to give the Reaction Mixture. The reaction mixture thus obtained contains 1 mM diheptanoly thio-PC substrate, 0.29 mM Triton X-100™ detergent, and 0.12 mM DTMB in a buffered aqueous solution at pH 7.5. Assay Procedure: 1. Add 0.2 ml reaction mixture to all wells; 2. Add 10 ul test compound (or solvent blank) to appropriate wells, mix 20 seconds; 3. Add 50 nanograms of sPLA2 (10 microliters) to appropriate wells; 4. Incubate plate at 40° C. for 30 minutes; […] Read absorbance of wells at 405 nanometers with an automatic plate reader. All compounds were tested in triplicate. Typically, compounds were tested at a final concentration of 5 ug/ml. […] Lack of color development at 405 nanometers evidenced inhibition. Compounds initially found to be active were reassayed to confirm their activity and, if sufficiently active, IC50 values were determined. […] In all cases, % inhibition measured at 405 nanometers generated by enzyme reactions containing inhibitors relative to the uninhibited control reactions was determined. Each sample was titrated in triplicate and result values were averaged for plotting and calculation of IC50 values. […] IC50 values were determined at least three times for each compound tested.

Compound	inhibition at 10 µM [1] [%]	inhibition at 30 µM [1] [%]	IC50 [2] [µM]	transient contraction of tissue during test ([1]; footnote * of Table 2)
COc1ccc2c(c1)c(CC(=O)NN)c(C)n2Cc1cccc(OCc2ccccc2)c1 [Example 30, 1-[(3-Benzyloxyphenyl)methyl]-5-methoxy-2-methyl-1H-indole-3-acetic acid hydrazide]	21.4	60.9 ± 9.7	0.61 ± 0.22	–
CCc1c(CC(=O)NN)c2cc(OC)ccc2n1Cc1ccccc1-c1ccccc1 [Example 4, 1-([1,1'-biphenyl]-2-ylmethyl)-2-ethyl-5-methoxy-1H-indole-3-acetic acid hydrazide]	–	11 ± 10.3	5.17 ± 6.71	–
Cc1c(CC(=O)NN)c2cc(O)ccc2n1Cc1ccccc1 [Example 61, 5-Hydroxy-2-methyl-1-(phenylmethyl)-1H-indole-3-acetic acid hydrazide]	–	72.3 ± 4.5	1.39 ± 0.69	–
COc1ccc2c(c1)c(CC(=O)NN)c(Cl)n2Cc1ccccc1 [Example 43, 2-Chloro-5-methoxy-1-(phenylmethyl)-1H-indole-3-acetic acid hydrazide]	–	91.3 ± 6	0.39 ± 0.03	–
COc1ccc2c(c1)c(CC(=O)NN)c(C)n2Cc1ccncc1 [Example 39, 5-Methoxy-2-methyl-1-[(4-pyridyl)methyl]-1H-indole-3-acetic acid hydrazide]	–	–	45.9 ± 13.1	–
5-Methoxy-1-(phenylmethyl)-1H-indole-3-butanoic acid hydrazide [Example 66]	–	–	9.96 ± 5.61	–
Cc1c(CC(=O)NN)c2cc(Br)ccc2n1Cc1ccccc1 [Example 50, 5-Bromo-2-methyl-1-(phenylmethyl)-1H-indole-3-acetic acid hydrazide]	–	–	1.02 ± 0.43	–
Cc1c(CC(=O)NN)c2cc(C(=O)NN)ccc2n1Cc1cccc(Cl)c1 [Example 69, 1-[(3-Chlorophenyl)methyl]-5-hydrazinocarbonyl-2-methyl-1H -indole-3-acetic acid hydrazide]	–	–	2.7 ± 0.38	–
CCc1c(CC(=O)NN)c2cc(C)ccc2n1Cc1ccccc1 [Example 6, 2-Ethyl-5-methyl-1-(phenylmethyl)-1H-indole-3-acetic acid hydrazide]	–	–	0.67 ± 0.24	–
COc1ccc2c(c1)c(CC(=O)NN)c(C)n2Cc1cccnc1 [Example 38, 5-Methoxy-2-methyl-1-[(3-pyridyl)methyl]-1H-indole-3-acetic acid hydrazide]	–	–	84.2 ± 19.4	–

Next, values leading:

inhibition at 10 µM [1] [%]	inhibition at 30 µM [1] [%]	IC50 [2] [µM]	transient contraction of tissue during test ([1]; footnote * of Table 2)	Compound
–	21.2 ± 12.5	70.5 ± 2.89	–	CCCc1c(CC(=O)NN)c2cc(OC)ccc2n1Cc1ccccc1 [Example 5, 5-Methoxy-1-(phenylmethyl)-2-propyl-1H-indole-3-acetic acid hydrazide]
37.8 ± 15.5	29.1 ± 7	0.71 ± 0.34	–	Cc1c(CC(=O)NN)c2cc(Br)ccc2n1Cc1cccc(OCc2ccccc2)c1 [Example 52, 1-[(3-Benzyloxyphenyl)methyl]-5-bromo-2-methyl-1H-indole-3-acetic acid hydrazide]
70.7 ± 6.4	98 ± 1.5	1.02 ± 0.18	*	COc1ccc2c(c1)c(CC(=O)NN)c(C)n2Cc1cccc(Cl)c1 [Example 18, 1-(3-Chlorophenylmethyl)-5-methoxy-2-methyl-1H-indole-3-acetic acid hydrazide]
–	–	2.31 ± 0.65	–	NNC(=O)Cc1cn(Cc2ccccc2)c2ccc(OCc3ccccc3)cc12 [Example 9, 5-Benzyloxy-1-(phenylmethyl)-1H-indole-3-acetic acid hydrazide]
–	–	1.71 ± 0.24	–	COc1ccc2c(c1)c(CC(=O)NN)c(C)n2Cc1ccccc1Cl [Example 17, 1-(2-Chlorophenylmethyl)-5-methoxy-2-methyl-1H-indole-3-acetic acid hydrazide]
–	–	0.64 ± 0.19	–	COc1ccc2c(c1)c(CC(=O)NN)c(C)n2Cc1c(Cl)cccc1Cl [Example 21, 1-(2,6-Dichlorophenylmethyl)-5-methoxy-2-methyl-1H-indole-3-acetic acid hydrazide]
–	–	16.8 ± 2.89	–	COc1ccc2c(c1)c(CC(=O)NN)c(C)n2CCCc1ccccc1 [Example 41, 5-Methoxy-2-methyl-1-(3-phenylpropyl)-1H-indole-3-acetic acid hydrazide]
–	–	8.46 ± 5.45	–	Cc1c(CC(=O)NN)c2cc(OCc3ccc4ccccc4n3)ccc2n1Cc1ccc(Cl)cc1 [Example 63, 1-[(4-Chlorophenyl)methyl]-2-methyl-5-[(2-quinolyl)methoxy]-1H-indole-3-acetic acid hydrazide]
–	–	0.86	–	Cc1c(CC(=O)NN)c2cc(OCCCC(=O)O)ccc2n1Cc1ccccc1 [Example 71, 4-[[3-(2-Hydrazino-2-oxoethyl)-2-methyl-1-(phenylmethyl)-1H-indol-5-yl]oxy]butanoic acid]
–	–	1.52 ± 0.56	–	CCc1c(CC(=O)NN)c2cc(F)ccc2n1Cc1ccccc1 [Example 7, 2-Ethyl-5-fluoro-1-(phenylmethyl)-1H-indole-3-acetic acid hydrazide]
–	–	0.76 ± 0.35	–	Cc1ccc2c(c1)c(CC(=O)NN)c(C)n2Cc1ccccc1 [Example 59, 2,5-Dimethyl-1-(phenylmethyl)-1H-indole-3-acetic acid hydrazide]
–	–	2.21 ± 1.16	–	Cc1c(CC(=O)NN)c2cc(-c3ccccc3)ccc2n1Cc1cccc(OCc2ccccc2)c1 [Example 58, 1-[(3-Benzyloxyphenyl)methyl]-2-methyl-5-phenyl-1H-indole-3-acetic acid hydrazide]
–	–	2.28 ± 0.57	–	COc1ccc2c(c1)c(CC(=O)NN)c(C)n2Cc1ccc(OCc2ccccc2)cc1 [Example 32, 1-[(4-Benzyloxyphenyl)methyl]-5-methoxy-2-methyl-1H-indole-3-acetic acid hydrazide]
